Patent US11059778B2, “Cannabinoid receptor CB2 ligand 4-(aminomethyl)-N, N-dialkylanilines” (UNIVERSITY OF PITTSBURGH—OF THE COMMONWEALTH SYSTEM OF …, priority 2015, dated 2021)
pKi: −log10 of the molar value. Entries after “also recorded” stand apart in the source; their conditions may differ.

What was measured:
[1] = target: T1, human CB2 receptors (Homo sapiens, UniProt P34972); test: [3H]CP-55,940 radioligand competition binding assay, CB2; details: for pKi: CHO cell membranes, [3H]CP-55,940 displacement
T1 construct: expressed in transfected cells
T1 sequence (P34972 whole entry): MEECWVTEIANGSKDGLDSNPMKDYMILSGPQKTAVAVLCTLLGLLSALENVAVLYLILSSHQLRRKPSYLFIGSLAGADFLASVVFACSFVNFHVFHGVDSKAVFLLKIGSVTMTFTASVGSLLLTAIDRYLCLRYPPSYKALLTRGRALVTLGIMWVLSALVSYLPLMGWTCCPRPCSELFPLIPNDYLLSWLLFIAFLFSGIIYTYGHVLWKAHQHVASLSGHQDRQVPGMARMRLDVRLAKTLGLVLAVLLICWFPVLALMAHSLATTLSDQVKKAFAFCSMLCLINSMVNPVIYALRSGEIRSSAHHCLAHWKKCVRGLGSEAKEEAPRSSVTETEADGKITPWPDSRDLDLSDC
Protocol: (§1) Binding assay. The bioassay is carried out using the Perkin Elmer 96-well Top Counter. This bioassay is also known as a competition binding assay and the biological evaluation is to determine the CB receptor binding affinity (Ki) of the screened ligands by displacing [^3H]-CP-55940 (or other radioligands). The brief procedure is given below.
(§2) Perkin Elmer 96-well TopCounter is used at PMLSC and in our laboratory to determine the CB receptor binding affinity (Ki) of the in-silico screened ligands by displacing [^3H]-CP-55,940 (or other radioligands). In competition binding experiments, the tested compound dilutions are carried out in triplicate in TME buffer (25 mM Tris, 5 mM MgCl2, 1 mM EDTA) containing 0.1% (w/v) fatty acid free bovine serum albumin (BSA), pH 7.4. Various concentrations of the tested compound are added in the same volume to 0.5 nM [^3H]CP-55,940. TME buffer and cell membrane preparations expressing CB receptors (2.5 μg per well) are added to a final volume of 200 μL. For the saturation binding experiments, varying concentrations of [^3H]CP-55,940 (0.05-1.5 nM) with or without 2 μM of unlabeled ligands (CP-55,940 or WIN-55,212-2) are incubated with the receptor membrane preparations to determine Kd and nonspecific binding. After the binding suspensions are incubated at 30° C. for 1 hr, the reaction is terminated by rapid filtration through microfiltration plates coated with 0.5% polyethylenimine (Unifilter GF/B filterplate, PerkinElmer) followed by 5 washes with ice cold TME buffer containing 0.5% BSA on a Packard Filtermate Harvester (PerkinElmer). The plates are then dried overnight and 30 μl MicroScint 0 scintillation cocktail are added to each well of the dried filter plates. Then the bound radioactivity is counted using a Perkin Elmer 96-well TopCounter. The Ki is calculated by using nonlinear regression analysis (Prism 5; GraphPad Software Inc., San Diego, Calif.), with the Kd values for [^3H]CP-55,940 determined from saturation binding experiments. This assay is used for determining binding affinity parameters (Ki) of ligand-receptor interactions for the CB receptor.
(§3) The affinities of the synthesized ligands were determined in radioligand binding studies at human CB1 and CB2 receptors using [3H](—)-cis-3-[2-hydroxy-4-(1,1 dimethylheptyl)phenyl]-trans-4-(3-hydroxypropyl) cyclohexanol (CP55,940) as a CB receptor radioligand. As a source for human CB1 and CB2 receptors, membrane preparations of Chinese hamster ovary (CHO) cells stably expressing the respective receptor subtype were utilized (50 μg of protein/vial). CB2 selective ligand SR144528 (CB2 inverse agonist) and CB1 ligand SR141716 (CB1 inverse agonist) were used as positive controls, respectively, along with the tested compounds in bioassays experiments. Only compounds with high CB2 receptor binding potency was chosen to carry out the CB1 binding assay. CB ligand competition binding assay was carried out as described previously in Gertsch, J., et al., Beta-caryophyllene is a dietary cannabinoid. Proc Natl Acad Sci USA 2008, 105 (26), 9099-104. Briefly, non-radioactive (or cold) ligands (synthesized derivatives and reference ligands) were diluted in a binding buffer (50 mM Tris-HCl (pH 7.4), 5 mM MgC12, 2.5 mM EGTA, and 0.1% (w/v) fatty acid free BSA), supplemented with 10% dimethyl sulfoxide and 0.4% methyl cellulose. Each assay plate well contained a total of 200 μL of reaction mixture composed of 5 μg of CB1 (or 2.5 μg CB2) membrane protein, labeled [3H]-CP-55,940 ligand at a final concentration of 2.5 nM, and the unlabeled ligand at its varying dilutions as stated above. Plates were incubated at 30° C. for 1 hour with gentle shaking.
(§4) The reaction was terminated by rapid filtration through Unifilter GF/B filter plates using a Unifilter Cell Harvester (PerkinElmer). After the plate was allowed to dry overnight, 30 μL MicroScint-0 cocktail (PerkinElmer) was added to each well, and the radioactivity was counted using a PerkinElmer TopCounter. […]

[2] = target: T2, human CB1 receptors (Homo sapiens, UniProt P21554); test: [3H]CP-55,940 radioligand competition binding assay, CB1; details: CHO cell membranes, [3H]CP-55,940 displacement
T2 construct: expressed in transfected cells
T2 sequence (P21554 whole entry): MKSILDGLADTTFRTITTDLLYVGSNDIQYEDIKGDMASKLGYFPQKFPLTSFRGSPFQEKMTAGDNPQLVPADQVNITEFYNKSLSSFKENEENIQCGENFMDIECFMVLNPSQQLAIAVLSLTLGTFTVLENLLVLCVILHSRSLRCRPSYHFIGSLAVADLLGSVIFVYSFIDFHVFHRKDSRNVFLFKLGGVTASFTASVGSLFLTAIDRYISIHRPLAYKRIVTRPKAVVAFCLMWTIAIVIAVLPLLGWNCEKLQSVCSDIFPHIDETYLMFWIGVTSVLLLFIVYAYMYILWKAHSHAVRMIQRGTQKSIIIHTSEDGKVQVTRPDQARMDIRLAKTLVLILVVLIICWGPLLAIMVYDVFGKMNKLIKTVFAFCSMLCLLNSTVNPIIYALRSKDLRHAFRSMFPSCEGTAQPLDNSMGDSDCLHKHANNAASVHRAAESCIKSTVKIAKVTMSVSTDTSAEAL
Protocol: as §1, §2, §3, §4

[3] = tested on: RANKL-induced osteoclast differentiation of C57BL/6 mouse bone marrow cells; test: In-vitro osteoclast formation assay (RANKL-induced, TRAP staining); assay type: cell-based; details: for effect on RANKL-induced osteoclast formation (in words): RANKL 100 ng/mL, M-CSF 30 ng/mL, concentration series up to 10 μM, FIG. 5; for inhibition at 10 µM: Mus musculus, Osteoclast, read-out: inhibition rates of osteoclast formation
Protocol: FIGS. 5A and 5B relate to […]. Anti-osteoclastogenesis activity of the synthesized CB2 ligands. […] FIG. 5B: BM cells were seeded at a density of 2×10^5 cells/well in 96-well plates and treated with or without RANKL (100 ng/mL) and M-CSF (30 ng/mL). CB2 compounds were added at the indicated concentrations for 10 days and stained for TRAP expression. Data is the mean of three experiments carried out in triplicates. (B) Microscopic photographs of cells for compound 15 (magnification 100×).
Bone marrow (BM) cells were obtained from the tibia and femur of 4- to 6-week old C57BL/6 mice. To examine the effects of our selective CB2 ligands, BM cells were seeded at 2×10^5 cells/well in 96-well plates in 100 μIL/well Alpha-MEM media (Gibco Laboratories, Grand Island, N.Y.) containing 15% fetal bovine serum (FBS) (Gibco Laboratories, Grand Island, N.Y.), 30 ng/mL M-CSF (R&D Systems, USA), and 100 ng/mL RANKL (ProsPec, East Brunswick, N.J.). Plates were cultured for 7-10 days. Half media was changed every third day with or without CB2 ligands. At the end of the experiment, cells were fixed and stained with tartrate-resistant acid […] (TRAP) (Sigma-Aldrich, USA), according to manufacturer's protocol. TRAP-positive cells with ≥3 nuclei were counted as osteoclasts ((a) Feng, R., et al., SDX-308, a nonsteroidal anti-inflammatory agent, inhibits NF-kappaB activity, resulting in strong inhibition of osteoclast formation/activity and multiple myeloma cell growth. Blood 2007, 109 (5), 2130-8; (b) Yu, M., et al., Curcumol suppresses RANKL-induced osteoclast formation by attenuating the JNK signaling pathway. Biochem Biophys Res Commun 2014, 447 (2), 364-70; (c) Feng, R., et al., KD5170, a novel mercaptoketone-based histone deacetylase inhibitor, exerts antimyeloma effects by DNA damage and mitochondrial signaling. Mol Cancer Ther 2008, 7 (6), 1494-505.).

With `CCN(CC)c1ccc(CN(Cc2cc(OC)c(OC)c(OC)c2)C(=O)c2cccs2)cc1` [Compound 11, N-(4-(diethylamino)benzyl)-N-(3,4,5-trimethoxybenzyl)thiophene-2-carboxamide] the “SI: selectivity index for CB2, calculated as Ki(CB1)/Ki(CB2) ratio” value [1] was 31, the pKi [1] was 6.97 and the pKi [2] was 5.48. The “effect on RANKL-induced osteoclast formation (in words)” value (from here on “effect”) [3] was “induction of osteoclast formation at higher doses; also recorded: low effect in inducing the osteoclast formation at higher doses”.
With `CCN(CC)c1ccc(CN(Cc2cc(OC)c(OC)c(OC)c2)S(=O)(=O)/C=C/c2ccccc2)cc1` [Compound 15, (E)-N-(4-(diethylamino)benzyl)-2-phenyl-N-(3,4,5-trimethoxybenzyl)ethene-1-sulfonamidebenzenesulfonamide] the “SI: selectivity index for CB2, calculated as Ki(CB1)/Ki(CB2) ratio” value [1] was 145, the pKi [1] was 6.86 and the pKi [2] was less than 4.70. For the same molecule, the inhibition at 10 µM [3] was greater than 95% and the “effect” value [3] was “concentration-dependent inhibition of osteoclast formation; also recorded: inhibited the RANKL-induced osteoclast differentiation in a dose-dependent manner”.
For `CCN(CC)c1ccc(CN(Cc2cc(OC)c(OC)c(OC)c2)S(=O)(=O)c2ccc(C=O)cc2)cc1` [Compound 18, N-(4-(diethylamino)benzyl)-4-formyl-N-(3,4,5-trimethoxybenzyl)benzenesulfonamide], the “SI: selectivity index for CB2, calculated as Ki(CB1)/Ki(CB2) ratio” value [1] was 9, the pKi [1] was 6.62 and the pKi [2] was 5.64. For the same molecule, the inhibition at 10 µM [3] was greater than 95% and the “effect” value [3] was “concentration-dependent inhibition of osteoclast formation; also recorded: inhibited the RANKL-induced osteoclast differentiation in a dose-dependent manner”.
